Consider two compounds from PMC10892818, “An Antiherpesviral Host-Directed Strategy Based on CDK7 Covalently Binding Drugs: Target-Selective, Picomolar-Dose, Cross-Virus Reactivity” (Pharmaceutics, 2024).

Series [1] in a line: Neutral Red uptake assay (NRA), uninfected HFFs. It is filed as cell-based. The following applies: human, read-out: CC50 (VZV-GFP system). As for the experimental part:
The cytotoxic level of the compounds was determined by the use of an established quantitation of cell viability (i.e., Neutral Red uptake assay) performed after 3–7 d of compound incubation on uninfected cells (according to the respective duration of the antiviral reporter-based replication assay performed in parallel) as described earlier in [44].

Series [2] concerns VZV Oka-GFP. As to the kind of experiment: microbe, parasite or virus in culture. It is filed as cell-based, varicella zoster virus. The following applies: for EC50: Human alphaherpesvirus 3, 96 h. The source says: (§1) The virus recombinants VZV Oka-GFP and rKSHV.219-GFP/RFP were used for the infection of HFFs (virus stock VZV Oka-GFP applied as a cell-bound inoculum as described before) or were continuously passaged in iSLK.219 carrier cells, respectively (Figure 1). The conditions of the GFP/RFP-based assays were adapted to both the 96 well (Figure 1A,B) and 12 well formats, and details including the assessment of antiviral reference drugs are given (Figure 1C,D).
(§2) The virus recombinants VZV Oka-GFP and rKSHV.219-GFP/RFP were used for the infection of HFFs (VZV) or were continuously passaged in iSLK.219 carrier cells (KSHV), respectively, and cell viability was determined by NRA performed with uninfected HFFs or uninduced iSLK.219 cells, respectively. (A,B) Schematic depiction of the assay systems performed in a 96 well plate format. […] For the VZV-GFP system, virus stock VZV Oka-GFP was applied as a cell-bound infectious inoculum. After a 90 min period of inoculum adsorption to the cell surfaces, antiviral compounds were added to the culture media at serial dilutions (DMSO served as a solvent control for drug treatment of infected cells, while mock-infected cells served as a negative control). For the KSHV-GFP/RFP system, iSLK.219 cell lytic replication of KSHV (RFP reporter signal) was induced by the addition of 0.05 or 0.5 µg/mL doxycycline (dox) to the culture media. Cultivated dox-induced iSLK.219 cells were treated with antiviral compounds added at serial dilutions (DMSO served as a positive infection solvent control, while dox-untreated mock cells served as a negative control). HFFs or iSLK.219 cells were harvested at 4 d p.i. or 1 d after treatment, respectively, fixed by a 10 min incubation with 10% formalin, washed with PBS, and used for quantitation of the GFP or RFP reporter signal by PicoMD counting (ImageXpress® Pico device, Molecular Devices LLC, San Jose, CA, USA), with data evaluation using CellReporterXpress® software (version 2.9.3.1183, Molecular Devices LLC) as described earlier in [63]. (C) The antiviral activity of the reference drugs was determined with the VZV-GFP system in the 96 well format. EC50 values refer to measurements in quadruplicate, and the mean values ± SD of two experimental replicates are given. (D) The antiviral activity of the reference drugs was determined with the KSHV-GFP/RFP system in the 96 well format. EC50 values refer to measurements in triplicate, and the mean values ± SD are given for each of the two depicted experimental replicates.

Series [3] is described as follows: Neutral Red uptake assay (NRA), iSLK.219 cells. The class given is cell-based. The following applies: human, read-out: CC50 (KSHV-GFP/RFP system). As for the experimental part:
as §2

For series [4], the system named is rKSHV.219-GFP/RFP. As to the kind of experiment: KSHV-GFP/RFP reporter assay in iSLK.219 cells. It is filed as cell-based, Kaposi’s sarcoma-associated herpesvirus.
Source text: as §1, §2
On the technique in general: Reporter assays use an easily measured gene product as a stand-in for the process of interest.

Where two headings read alike, the source gives them in different places. Some results are limits rather than exact numbers.

Consider `Nc1nc2c(ncn2COCCO)c(=O)[nH]1` [aciclovir], for which, in series [1], the CC50 was more than 100 µM.
For `CCCCCCCCCCCCCCCCOCCCOP(=O)(O)CO[C@H](CO)Cn1ccc(N)nc1=O` [brincidofovir], the “SI (VZV-GFP system)” value in series [2] (96 well format) is more than 143. Besides, the EC50 in series [2] (read-out: VZV EC50 (first experimental replicate)) worked out at 0.07 ± 0.04 µM; in series [2] (read-out: VZV EC50 (second experimental replicate)), 0.06 ± 0.03 µM; in series [4] (Human gammaherpesvirus 8, read-out: KSHV EC50, iSLK.219, 96 well, induced with 0.5 μg/mL dox), 0.7 µM. The CC50 is 23.8 ± 2.9 µM in series [3] (marked 0.05 μg/mL dox), 28.2 µM in series [3] (marked 0.5 μg/mL dox) and more than 10 µM in series [1]. In addition, the “SI (KSHV-GFP/RFP system)” value is 126 in series [4] (0.05 μg/mL dox) and 43 in series [4] (0.5 μg/mL dox).
